The source of these data is patent US20180149639A1, “MODELING NEURAL NETWORK DYSFUNCTION” (priority 2014, published 2018).

“Also recorded” adds a separate entry of the source.

Assay [1] has as its system Shank3 KO cortical networks. In words: MEA recordings of Shank3 KO cortical cultures (spike rate, NAP/NIP duration from ASDR plot). In kind it is cell-based, mice. Particulars: for NIP duration relative to WT level: 100 nM. As to the method:
(§1) Primary dissociated cortical neurons were prepared from postnatal day 0 wild type and Shank3 KO mice (Peca et al., 2011) from littermates using standard protocols as described before (Ramamoorthi et al., 2011). For micro-electrode array recordings, dissociated neurons were plated onto substrate embedded electrodes pre-coated with polyethyleneimine (PEI) (Sigma-Aldrich, 0.1%) plus laminin (Life Technologies, 20 μg/ml) at a density of 3×10^3 cells/mm^2. For biochemical experiments, 3×10^5 cells were plated onto 1 well of the 24-well plate pre-coated with 20 μg/ml Poly-D-lysine (PDL, Sigma-Aldrich) and 4 μg/ml laminin (Life Technologies). The cultures were treated with AraC (Sigma-Aldrich, 1 μg/ml) at day 5 in vitro, and maintained up to 21 days after plating.
(§2) The electrical activity of cultured neurons was recorded using MEA2100-Systems (Multichannel Systems) with integrated amplifier. Each MEA dish (6-well MEA 200/30 iR-Ti-rcr, Multichannel Systems) contains six wells, with 9 microelectrodes (TiN, 30 μm diameter) arranged over a 3×3 square grid at 200 μm inter-electrode distance in each MEA well (FIG. 1C). Recordings started 10 minutes after the MEA plates were placed to the headstage, which was set to 35° C., and the culture was supplied with continuous perfusion of 5% carbon dioxide balanced air (Airgas) throughout recording. For all time points earlier than 21 days in vitro (DIV21), MEA recordings lasted 15 minutes. At DIV21, MEA recordings lasted 30 minutes. All MEA recordings were performed in culture medium without perfusion. The electric signals were collected at 10 kHz with MCRack (Multichannel Systems; Version 4.4.2) and analyzed offline.
(§3) The software MCRack was used for spike detection. Raw MEA data was first high-pass filtered at 200 Hz to remove the low-frequency local field potentials. […] The average detection threshold is around 16 μV. Spike sorting was not performed, thus multiunit activity may contribute to the spikes detected from one electrode. Timestamps of spikes were stored and used for further analysis.
(§4) ASDR plot was generated using the method modified from Wagenaar et al. (2008) by summing the number of spikes detected per 200 ms from all electrodes in each well and plotted in time series. Clampfit 10.2 (Molecular Devices) was used for ASDR waveform analysis. 5% of individual ASDR's maximum peak value was calculated and set as the detecting threshold for identifying ASDR spike. […] ASDR spikes with ISIs below 10 seconds were grouped together and defined as network active period (NAP).
(§5) All drugs were dissolved in DMSO to make stock solutions before applying to neurons in culture media for pharmacological studies. Picrotoxin (PTX, stock solution of 100 mM) for blocking GABAA receptors (Tocris), Clonazepam (stock solution of 30 mM) as GABAA receptor positive modulator (Sigma), NBQX (stock solution of 10 mM) for blocking AMPA receptor (Abcam), and CX546 (stock solution of 100 mM) as AMPA receptor potentiator (Tocris) were used in doses as described herein. The maximum concentration of DMSO in the culture media with drug application was 0.08% volume.

A further assay relates to WT cortical networks. The assay is described as follows: MEA recordings of WT cortical cultures (spike rate, NAP/NIP duration from ASDR plot). In kind it is cell-based, mice. On the procedure:
as §1, §2, §3, §4, §5

Regarding Picrotoxin [PTX], the mean spike rate entry in assay [1] (Shank3 KO cultures DIV21, 50 μM, vs before treatment) is given as “significantly increased”; in the assay on WT cortical networks (WT cultures DIV21, 50 μM, vs before treatment) it was “significantly increased”. Besides, the “NIP duration compared to basal (reduced to)” value is reported as 51±6% in the assay with WT cortical networks (WT cortical networks DIV21, 0.2 μM) and 44±6% with WT cortical networks (WT cortical networks DIV21, 0.5 μM). The “length of NAP” value in the assay with WT cortical networks (WT cortical networks DIV21, up to 0.5 μM) is recorded as “remained unchanged”.

On to `O=C1CN=C(c2ccccc2Cl)c2cc([N+](=O)[O-])ccc2N1` [CLP, Clonazepam], for which the entries for the “NIP duration, dose dependence” value (in assay [1] (Shank3 KO networks DIV21); in the assay with WT cortical networks (WT cortical networks DIV21)) were “dose dependently increased” and “dose dependently elongated”, respectively. The “NIP duration relative to WT level” value is listed as “normalized the shortened NIP in the Shank3 KO network to the level of WT; also recorded: normalized reduced NIP duration” in assay [1] (Shank3 KO networks DIV21) and “normalized” in assay [1] (Shank3 KO networks DIV21, listed as clonazepam). Moreover, the “NIP duration, % longer” value in the assay with WT cortical networks (WT cortical networks DIV21, 100 nM, vs before treatment (basal)) was found to be 42±14%.

Consider `NS(=O)(=O)c1cccc2c1c([N+](=O)[O-])cc1nc(O)c(O)nc12` [NBQX], for which the “NIP duration (enhanced by)” value with WT cortical networks (WT cortical networks DIV21, 1 μM) amounted to 560±85%.

Take `O=C(c1ccc2c(c1)OCCO2)N1CCCCC1` [CX546]: the “mean spike rate (reduced-firing) in spontaneous network” value in assay [1] (Shank3 KO cultures DIV21, 30 μM) is “rescued the reduced-firing; also recorded: rescued the hypoactive network”. Also, the “mean spike rate (reduced-firing) in PTX-treated network” value in assay [1] (Shank3 KO cultures DIV21 with 50 μM PTX, 30 μM) was “effectively rescued the reduced-firing”. Besides, the “duration of NAP” value in assay [1] (Shank3 KO networks DIV21) is “did not significantly change”. Moreover, the “duration of NIP” value in assay [1] (Shank3 KO networks DIV21, CX546 treatment) is listed as “did not significantly change; also recorded: did not recover the network defect”. In the assay on WT cortical networks (WT cortical networks DIV21, 30 μM), the “NIP duration (decreased to)” value is reported as 58±11%. Besides, the “length of NAP” value in the assay with WT cortical networks (WT cortical networks DIV21, up to 30 μM) is “remained unchanged”.
